Series [1] has as its system EBs. As to the kind of experiment: Differentiation of EBs into tissues of mesoderm origin / osteoblast differentiation (von Kossa, Alizarin Red). Format: cell-based, human. As to conditions: for osteoblast differentiation (mineralization by Alizarin Red and von Kossa staining): 15 days of differentiation. From the text:
The EBs were used to direct their differentiation into tissues of the ectoderm (nerve, skin), endoderm (pancreas, lungs), mesoderm (bone, blood, cardiomyocytes) and trophectoderm lineages (placenta) using known and published methods (Bader et al., 2000; Buttery et al., 2001; Lumelsky et al., 2001; Lee et al; 2000; Schuliner et al., 2001). A description of the methods used for differentiation of hESC to various tissues of the ectoderm, endoderm, mesoderm and trophectoderm lineages can be found in Hyslop et al. (2005). The ability of the compound/drug to inhibit the differentiation of EBs into these tissues of any particular type will indicate the possibility of developmental defect induced by the drug.
Endotoxins/LPS silenced the expression of mesoderm specific genes in the EBs. […] To confirm this effect the LPS exposed EBs were directed towards tissues of mesoderm origin like cardiomyocytes, blood or bone. […] This indicates the possibility of defects in the blood, bone or heart formation as a result of endotoxin exposure during fetal development.
EBs derived from the human embryonic stem cell (hESC) line HUES9 were exposed to 12.5 pg/ml of LPS for 48 hrs. The expression profile of the ectoderm, endoderm, mesoderm and trophectoderm lineage markers like βIII-tubulin, GATA4, BMP2, Brachury and β-hCG were studied, by RT-PCR and Immunofluorescence. Inhibition of mesoderm induction was confirmed by RT-PCR analysis for hANP, cTnT, ABCG2, GATA2, BMP4 and HAND1. Osteoblast differentiation was induced in the EBs, and confirmed by von Kosa and Alizarin red staining. A comet assay was also done to assess the degree of apoptosis in these EBs.
Osteoblast differentiation: To assess the differentiating potential of EBs towards tissues of mesoderm origin, embryoid bodies were produced and exposed to LPS as described above. The normal and LPS treated EBs, 30 each, were subjected to osteoblast differentiation from day 5.5 onwards. To stimulate differentiation into osteogenic cells, ES medium containing 10^−8 M Dexamethasone, 50 μg/ml L-ascorbic acid and 5 mM Sodium-beta-glycophosphate was used. The medium was changed every 2-3 days and the differentiation was continued upto 15 days. The osteoblast differentiation was characterized by identifying mineralized areas using von Kossa and Alizarin Red staining. These were visualized and acquired using a Nikon Eclipse 90i microscope (Nikon Corporation, Japan).

In series [2] the test system is EBs. As to the kind of experiment: Effect on the germ lineages: RT-PCR of pluripotency and lineage markers in four day old EBs. Type of series: cell-based, human. The conditions noted are these: 12 pg/ml for 2 to 4 days. As for the experimental part:
Day 4 to 10 old EBs were maintained for 2 to 10 days in presence or absence of various (atleast 8 different) dilutions of the drug supplemented to the standard EB culture media. At the end of the incubation period the EBs were collected and the RNA is isolated from both the control and treated groups. The RNA was used for RT-PCR analysis of a set of developmentally important genes, pluripotency markers like (Nanog, Oct4, Sox2, and HMGB 1), lineage markers for ectoderm, endoderm, mesoderm and trophectoderm listed in table 1, 2, 3, 4, and also for a set of epigenetic signature genes (table nos. 6-7) identified by applicant. Alteration in the expression patterns of these genes in presence or absence of the compound in these EBs indicates their embryotoxic effect and potential to perturb the formation of specific or multiple lineages.
Four day old EBs were exposed to gram negative bacterial endotoxins/LPS at a concentration of 12 pg/ml for 2 to 4 days. The EBs were collected and analysed for pluripotency markers like Oct4, Sox2, HMGB1, and lineage markers like Nestin, PIII-tubulin, GATA4, BMP2, Brachury, Hand1 and BMP4 were studied, by RT-PCR. […] HMGB 1 expression was not found in these normal EBs. […] However, the mesoderm markers BMP2, Hand1, BMP4 and Brachury were silenced in the endotoxin treated EBs. […] This also explains many birth defects, which occurs as a result of gram negative bacterial infections. The expression of the LPS inducible cytokine and pluripotency associated gene HMGB1 in the EBs upon LPS exposure indicate its probable role in the formation of poorly formed embryos during such infections.

In series [3] the test system is HUES 9 EB. As to the kind of experiment: Expression profiles of lineage, pluripotency, epigenetic and imprinted genes in day 4.5 spherical EBs (HUES 9). The conditions noted are these: HUES 9 EB D4.5 LPS. Format: cell-based, human. Also noted: key: The sign ‘+’ indicates expression of the gene; the sign “−” indicates non-expression of the gene. As for the experimental part: RT-PCR: Total RNA from cells was isolated using TRIZOL-LS Reagent (Invitrogen) as per the manufacturer's protocol. Complementary DNA was synthesized using the SuperScript III First-Strand Synthesis System (Invitrogen) as per the manufacturer's instructions. Polymerase Chain Reaction (PCR) was carried out using 1U Tag DNA Polymerase (Sigma) and MgCl2 to a final concentration of 1.5 mM in a total volume of 25 μl/reaction. β-actin and GAPDH were used as the housekeeping controls. PCR cycles consisted of an initial denaturation at 95° C. for 5 minutes followed by 35 amplification cycles of denaturation at 94° C. for 45 seconds, annealing for 45 seconds, and extension at 72° C. for 45 seconds and final extension at 72° C. for 10 minutes.
Examples of changes in the expression profiles/patterns of lineage markers, pluripotency markers, epigenetic markers and imprinted genes, in day 4.5 spherical cavitating/cytic embryoid bodies upon exposure to compounds like lipopolysaccharide (LPS), Rho kinase inhibitor (Y27632), Azacytidine (Aza), and biologicals like an Uvomorulin antibody (UVO) are given in the table nos. 9-12 below. The sign ‘+’ indicates expression of the gene and the sign “−” indicates non-expression of the gene.

The test system of series [4] is hematopoietic precursor cells. As to conditions: report [21]; cited from earlier work.
Setting [5] is: EBs pre-exposed to 12.5 pg/ml for 48 hrs.

The source of these data is patent US20100248229A1, “INVITRO HUMAN EMBRYONIC MODEL AND A METHOD THEREOF” (Stempeutics Research Private Limited, priority 2007, published 2010).

“Also recorded” adds a separate entry of the source.

Turning to lipopolysaccharide [LPS], in series [1] (setting [5]), the “efficiency for attachment and proliferation during induction of osteogenic differentiation, treated vs control EBs” value is “no differences were found”; the “osteoblast differentiation (mineralization by Alizarin Red and von Kossa staining)” value is recorded as “failed to differentiate into functional osteoblasts; also recorded: failed to undergo osteoblast differentiation”. Also, the “osteoblast differentiation (mineralization by Alizarin Red and von Kossa staining)” value in series [1] (EBs pre-exposed to 12.5 pg/ml for 48 hrs, listed as lipopolysaccharides) is reported as “absence of mineralization”. Also, the “differentiation of exposed EBs into tissues of mesoderm origin (cardiomyocytes, blood or bone)” value in series [1] (LPS exposed EBs) is “failure to differentiate”. Also, in series [2], the “expression of Nestin, βIII-tubulin and GATA4 (RT-PCR)” value is on record as “positive expression”; the “expression of mesoderm markers BMP2, Hand1, BMP4 and Brachury (RT-PCR)” value was “silenced”. Also, the “expression of HMGB1 (RT-PCR)” value in series [2] (not found in normal EBs) is on record as “positive expression”. Besides, in series [3] (control +), the ABCG2 gene expression result was “−”, the BMP4 gene expression entry was “−”, the BRACHURY gene expression entry is on record as “−” and the CDH1 gene expression result is on record as “−”. Also, in series [3] (control +), the Dlk1 gene expression entry is “−”, the GATA2 gene expression entry is listed as “−”, the HAND1 gene expression result is recorded as “−” and the SDHD gene expression entry is listed as “−”. In series [3] (control +), the cTNT gene expression result was “−” and the hANP gene expression entry was “−”. For the same substance, in series [3] (control −), the DPYS gene expression entry is “+” and the HMGB1 gene expression result was “+”. Also, the “concentration enough to cause alterations in the proliferation of hematopoietic precursor cells in culture” value in series [4] was 2 to 5 pg/mL.
